# Test results published in the supplement of paper PMC4862054.
# Key:
# Details in all cases: 72 h
# [1] = tested on: BT-549
# Experimental: (§1)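 Drug sensitivity and resistance testing (DSRT) of breast cancer cell lines in 384-well plates, 5 concentrations in 10-fold dilutions over a compound-specific 10,000-fold range. After 72 h, cytotoxicity was read by CellTox Green fluorescence and viability by CellTiter-Glo luminescence (multiplexed), normalised to DMSO and benzethonium chloride controls. EC50 is the inflection point of the fitted dose-response curve (bottom asymptote free, so it can be relative for partial curves) and is censored at the highest tested concentration. Rows with DSS 0 (no meaningful response) were excluded.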
# [2] = tested on: BT-474
# Experimental: as §1
# [3] = tested on: CAL-51
# Experimental: as §1
# [4] = tested on: MDA-MB-231
# How it was run: (§2)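 Breast cancer cell lines in 20 µl suspension were added to 384-well plates already holding compound at 5 concentrations, spaced in 10-fold steps across a compound-specific 10,000-fold range, and incubated for 72 h. CellTox Green fluorescence (485/520 nm) was read first to measure cell death, followed by CellTiter-Glo luminescence for viability after 10 min at room temperature. Each plate was normalised to 0.1 % DMSO and a positive kill control. EC50 values came from dose-response curve fits and were censored at the top concentration.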
# [5] = tested on: BT-549; remark: listed apart in the source
# How it was run: as §2
# [6] = tested on: MFM-223
# How it was run: as §2
# [7] = tested on: MDA-MB-468
# How it was run: as §2
# [8] = tested on: MDA-MB-453
# How it was run: as §2
# [9] = tested on: MDA-MB-436
# How it was run: as §2
# [10] = tested on: CAL-85-1
# How it was run: as §2
# [11] = tested on: HDQ-P1
# How it was run: as §2
# [12] = tested on: SK-BR-3
# How it was run: as §2
# [13] = tested on: CAL-120
# How it was run: as §2
# [14] = tested on: HCC1143
# How it was run: as §2
# [15] = tested on: BT-474; remark: listed apart in the source
# How it was run: as §2
# [16] = tested on: DU-4475
# How it was run: as §2
# [17] = tested on: CAL-148
# How it was run: as §2
# [18] = tested on: CAL-51; remark: listed apart in the source
# How it was run: as §2
# [19] = tested on: HCC1937
# How it was run: as §2
# [20] = tested on: HCC1599
# How it was run: as §2
# [21] = tested on: MDA-MB-231; remark: listed apart in the source
# Experimental: as §1
# [22] = tested on: MFM-223; remark: listed apart in the source
# Experimental: as §1
# [23] = tested on: MDA-MB-468; remark: listed apart in the source
# Experimental: as §1
# [24] = tested on: CAL-85-1; remark: listed apart in the source
# Experimental: as §1
# [25] = tested on: HDQ-P1; remark: listed apart in the source
# Experimental: as §1
# [26] = tested on: CAL-120; remark: listed apart in the source
# Experimental: as §1
# [27] = tested on: Hs578T
# Experimental: as §1
# [28] = tested on: DU-4475; remark: listed apart in the source
# Experimental: as §1
# [29] = tested on: CAL-148; remark: listed apart in the source
# Experimental: as §1
# [30] = tested on: HCC1937; remark: listed apart in the source
# Experimental: as §1
# [31] = tested on: HCC1599; remark: listed apart in the source
# Experimental: as §1
# [32] = tested on: MDA-MB-453; remark: listed apart in the source
# How it was run: (§3)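 EC50 is the value from a fitted percent-inhibition dose-response curve, censored at the highest concentration, and rows with zero drug sensitivity score were not kept. The underlying assay seeded breast cancer cell lines in 20 µl onto 384-well plates pre-loaded with compound in 5 µl medium for 72 h. Viability was then read by CellTiter-Blue fluorescence at 560/590 nm after 2 h at 37 °C, with each plate normalised to vehicle and a positive kill control.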
# [33] = tested on: CAL-85-1; remark: listed apart in the source
# How it was run: as §3
# [34] = tested on: HDQ-P1; remark: listed apart in the source
# How it was run: as §3
# [35] = tested on: DU-4475; remark: listed apart in the source
# How it was run: as §3
# [36] = tested on: CAL-148; remark: listed apart in the source
# How it was run: as §3
# [37] = tested on: CAL-51; remark: listed apart in the source
# How it was run: as §3
# [38] = tested on: Hs578T; remark: listed apart in the source
# How it was run: as §2
# [39] = tested on: MDA-MB-231; remark: listed apart in the source
# How it was run: as §3
# [40] = tested on: BT-549; remark: listed apart in the source
# How it was run: as §3
# [41] = tested on: MFM-223; remark: listed apart in the source
# How it was run: as §3
# [42] = tested on: MDA-MB-436; remark: listed apart in the source
# How it was run: as §3
# [43] = tested on: CAL-120; remark: listed apart in the source
# How it was run: as §3
# [44] = tested on: HCC1143; remark: listed apart in the source
# How it was run: as §3
# [45] = tested on: Hs578T; remark: listed apart in the source
# How it was run: as §3
# [46] = tested on: BT-474; remark: listed apart in the source
# How it was run: as §3
# [47] = tested on: HCC1599; remark: listed apart in the source
# How it was run: as §3
smiles,measurement,setting,value
C=CCc1cccc(/C=N/NC(=O)CN2CCN(Cc3ccccc3)CC2)c1O [PAC-1],"EC50, CellTox Green",[1],1.19 µM
same,"EC50, CellTox Green",[2],3.52 µM
same,"EC50, CellTox Green",[3],0.413 µM
same,"EC50, CellTiter-Glo",[4],3.1 µM
same,"EC50, CellTiter-Glo",[5],1.23 µM
same,"EC50, CellTiter-Glo",[6],8.68 µM
same,"EC50, CellTiter-Glo",[7],4.58 µM
same,"EC50, CellTiter-Glo",[8],2.61 µM
same,"EC50, CellTiter-Glo",[9],3.48 µM
same,"EC50, CellTiter-Glo",[10],5.25 µM
same,"EC50, CellTiter-Glo",[11],4.98 µM
same,"EC50, CellTiter-Glo",[12],5.2 µM
same,"EC50, CellTiter-Glo",[13],3.79 µM
same,"EC50, CellTiter-Glo",[14],6.7 µM
same,"EC50, CellTiter-Glo",[15],3.91 µM
same,"EC50, CellTiter-Glo",[16],4.35 µM
same,"EC50, CellTiter-Glo",[17],6.67 µM
same,"EC50, CellTiter-Glo",[18],1.62 µM
same,"EC50, CellTiter-Glo",[19],5.3 µM
same,"EC50, CellTiter-Glo",[20],7.69 µM
COc1cc([C@@H]2c3cc4c(cc3[C@@H](O[C@@H]3O[C@@H]5CO[C@@H](c6cccs6)O[C@H]5[C@H](O)[C@H]3O)[C@H]3COC(=O)[C@H]23)OCO4)cc(OC)c1O [Teniposide],"EC50, CellTox Green",[21],1.19 µM
same,"EC50, CellTox Green",[22],0.835 µM
same,"EC50, CellTox Green",[23],4.76 µM
same,"EC50, CellTox Green",[24],2.39 µM
same,"EC50, CellTox Green",[25],2.38 µM
same,"EC50, CellTox Green",[26],4.09 µM
same,"EC50, CellTox Green",[27],4 µM
same,"EC50, CellTox Green",[28],1.62 µM
same,"EC50, CellTox Green",[29],0.0107 µM
same,"EC50, CellTox Green",[3],0.879 µM
same,"EC50, CellTox Green",[30],0.1 µM
same,"EC50, CellTox Green",[31],0.35 µM
same,"EC50, CellTiter-Blue viability",[32],1.84 µM
same,"EC50, CellTiter-Blue viability",[33],1.45 µM
same,"EC50, CellTiter-Blue viability",[34],1.7 µM
same,"EC50, CellTiter-Blue viability",[35],0.0371 µM
same,"EC50, CellTiter-Blue viability",[36],0.22 µM
same,"EC50, CellTiter-Blue viability",[37],0.0758 µM
same,"EC50, CellTiter-Glo",[4],1.91 µM
same,"EC50, CellTiter-Glo",[5],0.359 µM
same,"EC50, CellTiter-Glo",[6],1.74 µM
same,"EC50, CellTiter-Glo",[7],0.614 µM
same,"EC50, CellTiter-Glo",[9],0.204 µM
same,"EC50, CellTiter-Glo",[10],1.19 µM
same,"EC50, CellTiter-Glo",[11],5.21 µM
same,"EC50, CellTiter-Glo",[12],0.138 µM
same,"EC50, CellTiter-Glo",[13],2.69 µM
same,"EC50, CellTiter-Glo",[14],0.842 µM
same,"EC50, CellTiter-Glo",[38],2.06 µM
same,"EC50, CellTiter-Glo",[15],0.888 µM
same,"EC50, CellTiter-Glo",[16],0.184 µM
same,"EC50, CellTiter-Glo",[17],0.393 µM
same,"EC50, CellTiter-Glo",[18],0.666 µM
same,"EC50, CellTiter-Glo",[19],2.71 µM
same,"EC50, CellTiter-Glo",[20],0.176 µM
same,"EC50, CellTiter-Blue viability",[39],2.19 µM
same,"EC50, CellTiter-Blue viability",[40],1.51 µM
same,"EC50, CellTiter-Blue viability",[41],1.85 µM
same,"EC50, CellTiter-Blue viability",[42],1.18 µM
same,"EC50, CellTiter-Blue viability",[43],0.999 µM
same,"EC50, CellTiter-Blue viability",[44],0.829 µM
same,"EC50, CellTiter-Blue viability",[45],3.83 µM
same,"EC50, CellTiter-Blue viability",[46],5.94 µM
same,"EC50, CellTiter-Blue viability",[47],1.74 µM
